Source: ChEMBL document CHEMBL1201862, “PubChem BioAssay data set” (2004)
Structures can show the parent of a compound that is named as a salt.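 Following 48 hours of exposure in 96-well plates, responses at five concentrations were used to interpolate endpoints linearly. At the GI50, growth is halved.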 Calls of active or inactive are those of the source. Cut-off read from the data, not from the text of the source: active = GI50 up to about 1.1 µM and inactive = higher.

Experiments:
Test in all cases: growth of human tumour cells (NCI), 48 h
PC-3 = tested on: PC-3
HT-29 = tested on: HT-29
MDA-MB-231 = tested on: MDA-MB-231
A498 = tested on: A498
HCT-116 = tested on: HCT-116
Malme-3M = tested on: Malme-3M
MDA-MB-435 = tested on: MDA-MB-435
OVCAR-8 = tested on: OVCAR-8
NCI-H460 = tested on: NCI-H460
U-251 = tested on: U-251
SF-295 = tested on: SF-295
KM12 = tested on: KM12
SW-620 = tested on: SW-620
HOP-92 = tested on: HOP-92
M14 = tested on: M14
IGROV-1 = tested on: IGROV-1
NCI-H226 = tested on: NCI-H226
HCT-15 = tested on: HCT-15
CCRF-CEM = tested on: CCRF-CEM
Hs-578T = tested on: Hs-578T

SMILES: CN(CCCN(C)Cc1ccc(Cl)c(Cl)c1)CCN1CCCC1
- GI50 (PC-3): 28.2 µM (inactive)
- GI50 (HT-29): 4.13 µM (inactive)
- GI50 (MDA-MB-231): 13.1 µM (inactive)
- GI50 (A498): 13.9 µM (inactive)
- GI50 (HCT-116): 12 µM (inactive)
- GI50 (Malme-3M): 15.8 µM (inactive)
- GI50 (MDA-MB-435): 3.33 µM (inactive)
- GI50 (OVCAR-8): 29.5 µM (inactive)
- GI50 (NCI-H460): 16.9 µM (inactive)
- GI50 (U-251): 16.8 µM (inactive)
- GI50 (SF-295): 21.7 µM (inactive)
- GI50 (KM12): 30.7 µM (inactive)
- GI50 (SW-620): 19.7 µM (inactive)
- GI50 (HOP-92): 4.16 µM (inactive)
- GI50 (M14): 5.73 µM (inactive)
- GI50 (IGROV-1): 27.7 µM (inactive)
- GI50 (NCI-H226): 21.2 µM (inactive)
- GI50 (HCT-15): 29 µM
- GI50 (CCRF-CEM): 7.11 µM (inactive)
- GI50 (Hs-578T): 17.7 µM (inactive)

SMILES: O=[N+]([O-])/C(C(Cl)=C(Cl)Cl)=C(\SCc1ccccc1)N1CCCCC1
- GI50 (PC-3): 20 µM (inactive)
- GI50 (HT-29): 36.6 µM (inactive)
- GI50 (MDA-MB-231): 13.3 µM (inactive)
- GI50 (A498): 31.9 µM (inactive)
- GI50 (HCT-116): 16.3 µM (inactive)
- GI50 (Malme-3M): 12.2 µM (inactive)
- GI50 (MDA-MB-435): 16.3 µM (inactive)
- GI50 (OVCAR-8): 20.6 µM (inactive)
- GI50 (NCI-H460): 23.8 µM (inactive)
- GI50 (U-251): 43.8 µM (inactive)
- GI50 (SF-295): 38.5 µM (inactive)
- GI50 (KM12): 28 µM (inactive)
- GI50 (HOP-92): 0.0879 µM (active)
- GI50 (M14): 19.3 µM (inactive)
- GI50 (IGROV-1): 24.6 µM (inactive)
- GI50 (NCI-H226): 19.7 µM (inactive)
- GI50 (HCT-15): 19.7 µM
- GI50 (CCRF-CEM): 8.34 µM (inactive)
- GI50 (Hs-578T): 27.5 µM (inactive)

SMILES: Cc1ccc(/N=c2/oc3c(ccc4ccccc43)nc2Nc2ccc(C)cc2)cc1
- GI50 (PC-3): > 100 µM (inactive)
- GI50 (HT-29): > 100 µM (inactive)
- GI50 (MDA-MB-231): > 100 µM (inactive)
- GI50 (A498): > 100 µM (inactive)
- GI50 (HCT-116): > 100 µM (inactive)
- GI50 (Malme-3M): > 100 µM (inactive)
- GI50 (MDA-MB-435): > 100 µM (inactive)
- GI50 (OVCAR-8): > 100 µM (inactive)
- GI50 (NCI-H460): > 100 µM (inactive)
- GI50 (U-251): > 100 µM (inactive)
- GI50 (SF-295): > 100 µM (inactive)
- GI50 (KM12): > 100 µM (inactive)
- GI50 (SW-620): > 100 µM (inactive)
- GI50 (HOP-92): > 100 µM (inactive)
- GI50 (IGROV-1): > 100 µM (inactive)
- GI50 (NCI-H226): > 100 µM (inactive)
- GI50 (HCT-15): > 100 µM
- GI50 (CCRF-CEM): > 100 µM (inactive)
- GI50 (Hs-578T): > 100 µM (inactive)

SMILES: CCOC(=O)c1c(SC(=O)c2ccc(C(C)(C)C)cc2)n(-c2ccccc2)c(=S)n(-c2ccccc2)c1=O
- GI50 (PC-3): > 100 µM (inactive)
- GI50 (HT-29): > 100 µM (inactive)
- GI50 (MDA-MB-231): > 100 µM (inactive)
- GI50 (A498): > 100 µM (inactive)
- GI50 (HCT-116): > 100 µM (inactive)
- GI50 (Malme-3M): > 100 µM (inactive)
- GI50 (MDA-MB-435): > 100 µM (inactive)
- GI50 (OVCAR-8): > 100 µM (inactive)
- GI50 (NCI-H460): > 100 µM (inactive)
- GI50 (U-251): > 100 µM (inactive)
- GI50 (SF-295): > 100 µM (inactive)
- GI50 (KM12): > 100 µM (inactive)
- GI50 (SW-620): > 100 µM (inactive)
- GI50 (HOP-92): > 100 µM (inactive)
- GI50 (M14): > 100 µM (inactive)
- GI50 (IGROV-1): > 100 µM (inactive)
- GI50 (NCI-H226): > 100 µM (inactive)
- GI50 (HCT-15): > 100 µM
- GI50 (CCRF-CEM): 29.7 µM (inactive)
- GI50 (Hs-578T): > 100 µM (inactive)

SMILES: OC1c2ccccc2CCC1CN1CCN(CCOC(c2ccc(F)cc2)c2ccc(F)cc2)CC1 (centres undefined)
- GI50 (PC-3): 16.3 µM (inactive)
- GI50 (MDA-MB-231): 13.8 µM (inactive)
- GI50 (A498): 12.3 µM (inactive)
- GI50 (HCT-116): 8.22 µM (inactive)
- GI50 (Malme-3M): 15.2 µM (inactive)
- GI50 (MDA-MB-435): 17.5 µM (inactive)
- GI50 (OVCAR-8): 14.3 µM (inactive)
- GI50 (NCI-H460): 15.4 µM (inactive)
- GI50 (U-251): 13.8 µM (inactive)
- GI50 (SF-295): 18 µM (inactive)
- GI50 (KM12): 20.5 µM (inactive)
- GI50 (SW-620): 16.2 µM (inactive)
- GI50 (HOP-92): 9.16 µM (inactive)
- GI50 (M14): 10.9 µM (inactive)
- GI50 (IGROV-1): 17.9 µM (inactive)
- GI50 (NCI-H226): 13.6 µM (inactive)
- GI50 (HCT-15): 6.05 µM
- GI50 (CCRF-CEM): 0.145 µM (active)
- GI50 (Hs-578T): 17.9 µM (inactive)

SMILES: O=C(O)c1ccccc1C(=O)c1ccc2c(c1)Cc1ccccc1-2
- GI50 (PC-3): 66.4 µM (inactive)
- GI50 (HT-29): 48.8 µM (inactive)
- GI50 (MDA-MB-231): > 100 µM (inactive)
- GI50 (A498): > 100 µM (inactive)
- GI50 (HCT-116): 73.5 µM (inactive)
- GI50 (Malme-3M): 80.9 µM (inactive)
- GI50 (MDA-MB-435): 63.4 µM (inactive)
- GI50 (OVCAR-8): 83.2 µM (inactive)
- GI50 (NCI-H460): 46.1 µM (inactive)
- GI50 (U-251): 54 µM (inactive)
- GI50 (SF-295): 69.7 µM (inactive)
- GI50 (KM12): 64.1 µM (inactive)
- GI50 (SW-620): > 100 µM (inactive)
- GI50 (HOP-92): > 100 µM (inactive)
- GI50 (M14): > 100 µM (inactive)
- GI50 (IGROV-1): > 100 µM (inactive)
- GI50 (NCI-H226): 36.1 µM (inactive)
- GI50 (HCT-15): 57.5 µM
- GI50 (Hs-578T): > 100 µM (inactive)

SMILES: CCOC(=O)c1cn2c(ccc3sc4ccccc4c(=O)c32)n1
- GI50 (PC-3): > 100 µM (inactive)
- GI50 (HT-29): > 100 µM (inactive)
- GI50 (MDA-MB-231): > 100 µM (inactive)
- GI50 (A498): > 100 µM (inactive)
- GI50 (HCT-116): > 100 µM (inactive)
- GI50 (Malme-3M): > 100 µM (inactive)
- GI50 (MDA-MB-435): > 100 µM (inactive)
- GI50 (OVCAR-8): > 100 µM (inactive)
- GI50 (NCI-H460): > 100 µM (inactive)
- GI50 (U-251): > 100 µM (inactive)
- GI50 (SF-295): > 100 µM (inactive)
- GI50 (KM12): > 100 µM (inactive)
- GI50 (SW-620): > 100 µM (inactive)
- GI50 (HOP-92): 87.5 µM (inactive)
- GI50 (IGROV-1): > 100 µM (inactive)
- GI50 (NCI-H226): > 100 µM (inactive)
- GI50 (HCT-15): > 100 µM
- GI50 (CCRF-CEM): > 100 µM (inactive)
- GI50 (Hs-578T): > 100 µM (inactive)

SMILES: CN1C[C@H](C(=O)N[C@]2(C)O[C@@]3(O)[C@@H]4CCCN4C(=O)[C@H](Cc4ccccc4)N3C2=O)C=C2c3cccc4[nH]cc(c34)C[C@H]21 [ERGOTAMINE TARTRATE]
- GI50 (PC-3): 18.3 µM (inactive)
- GI50 (HT-29): 23.9 µM (inactive)
- GI50 (MDA-MB-231): 19.2 µM (inactive)
- GI50 (A498): 15 µM (inactive)
- GI50 (HCT-116): 21 µM (inactive)
- GI50 (Malme-3M): 18.3 µM (inactive)
- GI50 (MDA-MB-435): 15.9 µM (inactive)
- GI50 (OVCAR-8): 19.3 µM (inactive)
- GI50 (U-251): 18.6 µM (inactive)
- GI50 (SF-295): 19.3 µM (inactive)
- GI50 (KM12): 28.8 µM (inactive)
- GI50 (SW-620): 23.4 µM (inactive)
- GI50 (HOP-92): 16.9 µM (inactive)
- GI50 (M14): 22.3 µM (inactive)
- GI50 (IGROV-1): 20 µM (inactive)
- GI50 (NCI-H226): 30.3 µM (inactive)
- GI50 (HCT-15): 18.9 µM
- GI50 (CCRF-CEM): 20 µM (inactive)
- GI50 (Hs-578T): 10.2 µM (inactive)
